We go through 6 compounds from US20260103466A1, “PROCESS FOR THE MANUFACTURE OF SALTS AND CRYSTALLINE FORMS OF 1-(8-BROMOPYRIDO[2,3-E][1,2,4]TRIAZOLO[4,3-A]PYRAZIN-4-YL)-NMETHYLAZETIDIN-3-AMINE AND NOVEL CRYSTALLINE FORMS” (JW PHARMACEUTICAL CORPORATION, priority 2022, published 2026).

Data set [1] in a line: Solubility in various solvents. It counts as physicochemical.
The nature of data set [2]: Stability towards hydrolysis and pH during processing in aqueous environment. The format is physicochemical. The following applies: compared to the hydrogen sulfate salt; for Stability towards hydrolysis: processing in aqueous, elevated temperatures at least as high as 50° C.
Data set [3] can be described thus: Solid form stability on drying and in water-containing environments. The format is physicochemical. As to conditions: for Stability during gentle drying: polymorphic forms of the methyl sulfate salt.
Data set [4] has as its system inflammatory cells such as mast cells and eosinophils. As to conditions: cited from earlier work.
The next data set concerns the target histamine 4 receptor (Homo sapiens, UniProt Q9H3N8). The following applies: cited from earlier work.

Chain of histamine 4 receptor (Q9H3N8 whole entry): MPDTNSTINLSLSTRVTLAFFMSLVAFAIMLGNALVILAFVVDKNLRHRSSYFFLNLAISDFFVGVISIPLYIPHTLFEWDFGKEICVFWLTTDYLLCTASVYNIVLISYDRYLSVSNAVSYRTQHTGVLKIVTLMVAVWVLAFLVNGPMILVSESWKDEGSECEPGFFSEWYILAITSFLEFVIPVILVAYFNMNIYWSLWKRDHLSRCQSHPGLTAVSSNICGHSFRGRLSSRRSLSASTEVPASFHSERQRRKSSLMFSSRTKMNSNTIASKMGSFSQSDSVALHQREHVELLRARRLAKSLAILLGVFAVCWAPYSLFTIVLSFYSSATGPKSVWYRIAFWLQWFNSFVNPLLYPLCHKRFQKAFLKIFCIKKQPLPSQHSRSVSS

The Solubility is the dissolved amount per volume that the medium holds. Take “1-(8-bromopyrido[2,3-e][1,2,4]triazolo[4,3-a]pyrazin-4-yl)-N-methylazetidin-3-amine ethyl sulfate”: the Solubility in data set [1] (solvent 1,3-dimethyl-2-imidazolidinone, ethyl sulfate form A) is 17000 µg/mL; in data set [1] (solvent 1-propanol, ethyl sulfate form A), 37 µg/mL; in data set [1] (solvent 2-propanol, ethyl sulfate form A), 4.7 µg/mL; in data set [1] (solvent Acetone, ethyl sulfate form A), 6.2 µg/mL; in data set [1] (solvent Acetonitrile, ethyl sulfate form A), 45 µg/mL; in data set [1] (solvent Cyclohexane, ethyl sulfate form A), less than 3.5 µg/mL. Besides, the Solubility was less than 3.5 µg/mL in data set [1] (solvent DCM, ethyl sulfate form A); 5900 µg/mL in data set [1] (solvent DMF, ethyl sulfate form A); 76000 µg/mL in data set [1] (solvent DMSO, ethyl sulfate form A); less than 3.5 µg/mL in data set [1] (solvent EtOAc, ethyl sulfate form A); 120 µg/mL in data set [1] (solvent EtOH, ethyl sulfate form A); 23 µg/mL in data set [1] (solvent Isoamyl alcohol, ethyl sulfate form A). Also, the Solubility was less than 3.5 µg/mL in data set [1] (solvent MTBE, ethyl sulfate form A); 1600 µg/mL in data set [1] (solvent MeOH, ethyl sulfate form A); 200 µg/mL in data set [1] (solvent Methyl ethyl ketone, ethyl sulfate form A); less than 3.5 µg/mL in data set [1] (solvent Toluene, ethyl sulfate form A). Besides, the “pH in aqueous environment” value in data set [2] is “more neutral”. The Stability towards hydrolysis entry in data set [2] is reported as “much more stable”.
Consider “1-(8-bromopyrido[2,3-e][1,2,4]triazolo[4,3-a]pyrazin-4-yl)-N-methylazetidin-3-amine methyl sulfate”, for which the “Solubility (in words)” value is listed as “intermediate” in data set [1] (in 1-propanol acetonitrile and ethanol); “very high” in data set [1] (in 1-propanol:H2O (1:5) and DMSO); “very low” in data set [1] (in THF, EtOAC, Toluene, MTBE and methyl ethyl ketone); “relatively high” in data set [1] (in a number of solvents); “low” in data set [1] (in isoamyl alcohol and 2-propanol); “high” in data set [1] (in methanol and DMF). Moreover, the Solubility in data set [1] (solvent 1-propanol/H2O (1:5), solid form A + B) is 44000 µg/mL; in data set [1] (solvent 1-propanol, solid form B), 50 µg/mL; in data set [1] (solvent 2-propanol, solid form A + B), 16 µg/mL; in data set [1] (solvent Acetone, solid form B), less than 3 µg/mL; in data set [1] (solvent Acetonitrile, solid form B), 55 µg/mL; in data set [1] (solvent DMF, solid form B), 8200 µg/mL. Moreover, the Solubility entry in data set [1] (solvent DMSO, solid form A + C) was “>/=69000 μg/ml”; in data set [1] (solvent EtOAc, solid form B) it was less than 3 µg/mL; in data set [1] (solvent EtOH, solid form B) it was 110 µg/mL; in data set [1] (solvent Isoamyl alcohol, solid form A + B), 6.3 µg/mL; in data set [1] (solvent MTBE, solid form A + B) it was less than 3 µg/mL; in data set [1] (solvent MeOH, solid form B) it was 1600 µg/mL. In addition, the Solubility is less than 3 µg/mL in data set [1] (solvent Methyl ethyl ketone, solid form B); less than 3 µg/mL in data set [1] (solvent THF, solid form B); less than 3 µg/mL in data set [1] (solvent Toluene, solid form A + B). The “pH in aqueous environment” value in data set [2] is “more neutral”. Besides, the Stability towards hydrolysis result in data set [2] is “much more stable”.
Consider “1-(8-bromopyrido[2,3-e][1,2,4]triazolo[4,3-a]pyrazin-4-yl)-N-methylazetidin-3-amine methyl sulfate monohydrate [form A]”, for which, in data set [3] (freeze dryer or vacuum oven at 60° C.), the “Drying behaviour of crystal lattice” value is recorded as “without collapsing the crystal lattice”. In addition, in data set [3], the “Stability during gentle drying” value was “stable”.
Turning to `CNC1CN(c2nc3ncc(Br)cc3n3cnnc23)C1` [1-(8-bromopyrido[2,3-e][1,2,4]triazolo[4,3-a]pyrazin-4-yl)-N-methylazetidin-3-amine], the “effects against histamine induced infiltration of inflammatory cells” value in data set [4] is on record as “suppressive effects”. Further, the “histamine 4 receptor inhibitory effect” value at histamine 4 receptor is “strong”.
As to `CNC1CN(c2nc3ncc(Br)cc3n3cnnc23)C1.COS(=O)(=O)O` [Form B, 1-(8-bromopyrido[2,3-e][1,2,4]triazolo[4,3-a]pyrazin-4-yl)-N-methylazetidin-3-amine methyl sulfate anhydrate], the “Stability in water-containing environments” value in data set [3] (environments containing 60% water) is “stable”. Moreover, in data set [3], the “Stability during gentle drying” value was “stable”.
As to `CNC1CN(c2nc3ncc(Br)cc3n3cnnc23)C1.CS(=O)(=O)O` [methane sulfonate salt, 1-(8-bromopyrido[2,3-e][1,2,4]triazolo[4,3-a]pyrazin-4-yl)-N-methylazetidin-3-amine methane sulfonate], in data set [2], the “pH in aqueous environment” value is given as “more neutral” and the Stability towards hydrolysis result is recorded as “much more stable”.
